Data as given in patent US11980188B2, “Spiro cyclohexanedione derivates as herbicides” (SYNGENTA PARTICIPATIONS AG, priority 2018, dated 2024).

Columns and labels:
Assay in all cases: Glasshouse herbicide test, pre- and post-emergence, percentage damage
Format in all cases: in vivo
[1] = system: Alopecurus myosuroides (ALOMY); settings: 250 g/h, evaluated after 13 days, percentage damage on five point scale; for ALOMY POST: post-emergence; for ALOMY PRE: pre-emergence
Outline: (§1)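 Five-point damage scores (5=80-100%, 1=0-19%) were recorded 13 days after application of 250 g/h. Treatment was pre-emergence (1 day after sowing) or post-emergence (8 days), and plants were kept at 24/16 °C, 14 h light, 65% humidity with twice-daily watering.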

[2] = system: Avena fatua (AVEFA); settings: 250 g/h, evaluated after 13 days, percentage damage on five point scale; for AVEFA POST: post-emergence; for AVEFA PRE: pre-emergence
Outline: as §1

[3] = system: Echinochloa crus-galli (ECHCG); settings: 250 g/h, evaluated after 13 days, percentage damage on five point scale; for ECHCG POST: post-emergence; for ECHCG PRE: pre-emergence
Outline: as §1

[4] = system: Lolium perenne (LOLPE); settings: 250 g/h, evaluated after 13 days, percentage damage on five point scale; for LOLPE POST: post-emergence; for LOLPE PRE: pre-emergence
Outline: as §1

[5] = system: Setaria faberi (SETFA); settings: 250 g/h, evaluated after 13 days, percentage damage on five point scale; for SETFA POST: post-emergence; for SETFA PRE: pre-emergence
Outline: as §1

Compound	ALOMY POST [1]	ALOMY PRE [1]	AVEFA POST [2]	AVEFA PRE [2]	ECHCG POST [3]	ECHCG PRE [3]	LOLPE POST [4]	LOLPE PRE [4]	SETFA POST [5]	SETFA PRE [5]
COc1cc(-c2ccc(F)cc2)cc(C)c1C1C(=O)CC2(CCN(C(C)=O)CC2)CC1=O [Compound A21]	5 (5=80-100%)	5 (5=80-100%)	5 (5=80-100%)	5 (5=80-100%)	5 (5=80-100%)	5 (5=80-100%)	5 (5=80-100%)	5 (5=80-100%)	5 (5=80-100%)	5 (5=80-100%)
Cc1cc(-c2ccc(F)cc2)cc(C)c1C1C(=O)CC2(CCN(C(=O)OC(C)(C)C)CC2)CC1=O [Compound A11]	5 (5=80-100%)	5 (5=80-100%)	4 (4=60-79%)	4 (4=60-79%)	5 (5=80-100%)	5 (5=80-100%)	5 (5=80-100%)	5 (5=80-100%)	5 (5=80-100%)	5 (5=80-100%)
Cc1cc(-c2ccc(C#N)cn2)cc(C)c1C1C(=O)CC2(CCN(C(=O)C3CC3)CC2)CC1=O [Compound A28]	5 (5=80-100%)	5 (5=80-100%)	5 (5=80-100%)	5 (5=80-100%)	5 (5=80-100%)	5 (5=80-100%)	5 (5=80-100%)	5 (5=80-100%)	5 (5=80-100%)	5 (5=80-100%)
Cc1cc(-c2ncc(F)cn2)cc(C)c1C1C(=O)CC2(CCN(C(=O)CC#N)CC2)CC1=O [Compound A43]	5 (5=80-100%)	5 (5=80-100%)	5 (5=80-100%)	5 (5=80-100%)	5 (5=80-100%)	5 (5=80-100%)	5 (5=80-100%)	5 (5=80-100%)	5 (5=80-100%)	5 (5=80-100%)
CON1CCC2(CC1)CC(=O)C(c1c(C)cc(-c3ncc(F)cn3)cc1C)C(=O)C2 [Compound A2, 9-[4-(5-fluoropyrimidin-2-yl)-2,6-dimethyl-phenyl]-3-methoxy-3-azaspiro[5.5]undecane-8,10-dione]	5 (5=80-100%)	5 (5=80-100%)	5 (5=80-100%)	5 (5=80-100%)	5 (5=80-100%)	5 (5=80-100%)	5 (5=80-100%)	5 (5=80-100%)	5 (5=80-100%)	5 (5=80-100%)
Cc1cc(-c2ncc(F)cn2)cc(C)c1C1C(=O)CC2(CCN(C(=O)C3CC3)CC2)CC1=O [Compound A38]	5 (5=80-100%)	5 (5=80-100%)	5 (5=80-100%)	5 (5=80-100%)	5 (5=80-100%)	5 (5=80-100%)	5 (5=80-100%)	5 (5=80-100%)	5 (5=80-100%)	5 (5=80-100%)
COc1cc(-c2ncc(F)cn2)cc(OC)c1C1C(=O)CC2(CCN(C(C)=O)CC2)CC1=O [Compound A15]	5 (5=80-100%)	5 (5=80-100%)	5 (5=80-100%)	5 (5=80-100%)	5 (5=80-100%)	5 (5=80-100%)	5 (5=80-100%)	5 (5=80-100%)	5 (5=80-100%)	5 (5=80-100%)
Cc1cc(-c2ccc(C#N)cn2)cc(C)c1C1C(=O)CC2(CCN(C(=O)c3ccccc3)CC2)CC1=O [Compound A23]	5 (5=80-100%)	5 (5=80-100%)	5 (5=80-100%)	5 (5=80-100%)	5 (5=80-100%)	5 (5=80-100%)	5 (5=80-100%)	5 (5=80-100%)	5 (5=80-100%)	5 (5=80-100%)
CC(=O)N1CCC2(CC1)CC(=O)C(c1c(C)cc(-c3ccc(F)cc3)cc1C)C(=O)C2 [Compound A12]	5 (5=80-100%)	5 (5=80-100%)	5 (5=80-100%)	4 (4=60-79%)	5 (5=80-100%)	5 (5=80-100%)	5 (5=80-100%)	5 (5=80-100%)	5 (5=80-100%)	5 (5=80-100%)
